Activity calls are given as the source filed them.
What was measured:
NADPH oxidase 1 = NADPH oxidase 1 (Homo sapiens, UniProt Q9Y5S8); test: Luminescence-based cell-based dose response assay to identify inhibitors of NADPH oxidase 1 (NOX1).; assay type: functional
[1] = target: Sphingosine 1-phosphate receptor 2 (Homo sapiens, UniProt O95136); test: Dose Response Cell Based Assay for Agonists of the S1P2 Receptor. [Related pubchem assays: 729, 736, 843 ]; assay type: functional
[2] = P. falciparum Dd2 growth inhibitors, dose response, SYBR Green, cherry-picked samples (AID 1159567); assay type: functional, cell-based
[3] = growth inhibition of PfATP4-mutant resistant parasites – NITD609-resistant line, SYBR Green, dry powder, dose response (AID 1159571); assay type: functional, cell-based;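 note: parasites synchronized at ring stage by sorbitol before testing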
[4] = toxicity to human HepG2 hepatoma cells – cell-based, plate reader, dry powder samples, cytotoxicity control, dose response (AID 1159569); assay type: functional;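 note: inhibitor potency with signal falling toward the positive control level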
[5] = Dd2 malaria parasite growth inhibition potency – SYBR Green, dry powder samples, dose response (AID 1159566); assay type: functional, cell-based;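 note: potency for growth inhibition with lower SYBR green DNA signal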
[6] = growth inhibition of yeast DHODH-expressing 3D7 parasites – SYBR Green, dry powder samples, dose response (AID 1159570); assay type: functional, cell-based;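 note: parasite growth measured after 72 hours of compound exposure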
[7] = alpha-synuclein stem-loop luciferase translation blockers – H4 neuroglioma cells, luminescence, confirmation (AID 1988); assay type: functional, cell-based
[8] = luciferase reporter signal suppression in cells – H4 neuroglioma cells, luminescence, dose response (AID 1990); assay type: functional, cell-based
[9] = target: ATP-dependent molecular chaperone HSP82 (Candida albicans (strain WO-1) (Yeast), UniProt C4YTQ8); test: steroid-induced GRE reporter decrease in yeast – S. cerevisiae, luminescence, Hsp90 inhibitor project, dose response (AID 2400); assay type: functional, cell-based;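 note: beta-galactosidase luminescence from glucocorticoid response element reporter as proxy for Hsp90 function; inhibitor potency where signal loss means Hsp90 inhibition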
[10] = viability loss in Vero cells – cytotoxicity control for Vif-APOBEC3G degradation inhibitor project, dose response (AID 1117358); assay type: functional; conditions: Vero
[11] = fluconazole-exposed Candida albicans growth modulators – fluorescence, retest, confirmation (AID 2467); assay type: functional, cell-based
[12] = NIH-3T3 fibroblast cytotoxicity, dose response, cytotoxicity control, cell-based, fluorescence, Alamar Blue, secondary assay (AID 2327); assay type: functional;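 note: NIH-3T3 mouse fibroblasts cultured with fluconazole at 8 µg/mL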
[13] = Trypanosoma cruzi growth suppression in host cells – NIH3T3 host cells, beta-gal luminescence, confirmation (AID 2044); assay type: functional, cell-based;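 note: intracellular parasites grown in NIH/3T3 mouse fibroblasts as host cells; luminescent beta-galactosidase reporter signal from transgenic T. cruzi replicating inside host cells; inhibitors lower the luminescence signal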
[14] = NIH3T3 cell viability loss – ATP luminescence, mouse fibroblasts, counter-screen, dose response (AID 2010); assay type: functional, cell-based;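 note: cells exposed to compound for about 90 hours before reading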
[15] = Luminescence Cell-Based Dose Response HTS to Identify Inhibitors of 5'UTR Stem-Loop Driven Prion Protein mRNA Translation in H4 Neuroglioblastoma Cells. [Related pubchem assays: 1827 (Project Summary), 1813 (Primary HTS)]; assay type: functional
[16] = target: T1, Serine/threonine-protein phosphatase (Candida dubliniensis (strain CD36 / CBS 7987 / NCPF 3949 / NRRLY-17841) (Yeast), UniProt B9W6M3); test: blockers of CaCl2-induced CDRE-lacZ signaling – S. cerevisiae, luminescence, secondary, dose response (AID 2388); assay type: functional, cell-based;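 note: yeast reporter cells carrying a calcineurin-responsive lacZ construct stimulated with calcium chloride; luminescent beta-galactosidase reporter signal in whole cells rather than isolated phosphatase activity; potency for inhibition where a drop in reporter signal means calcineurin blockade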
T1 sequence (B9W6M3 whole entry): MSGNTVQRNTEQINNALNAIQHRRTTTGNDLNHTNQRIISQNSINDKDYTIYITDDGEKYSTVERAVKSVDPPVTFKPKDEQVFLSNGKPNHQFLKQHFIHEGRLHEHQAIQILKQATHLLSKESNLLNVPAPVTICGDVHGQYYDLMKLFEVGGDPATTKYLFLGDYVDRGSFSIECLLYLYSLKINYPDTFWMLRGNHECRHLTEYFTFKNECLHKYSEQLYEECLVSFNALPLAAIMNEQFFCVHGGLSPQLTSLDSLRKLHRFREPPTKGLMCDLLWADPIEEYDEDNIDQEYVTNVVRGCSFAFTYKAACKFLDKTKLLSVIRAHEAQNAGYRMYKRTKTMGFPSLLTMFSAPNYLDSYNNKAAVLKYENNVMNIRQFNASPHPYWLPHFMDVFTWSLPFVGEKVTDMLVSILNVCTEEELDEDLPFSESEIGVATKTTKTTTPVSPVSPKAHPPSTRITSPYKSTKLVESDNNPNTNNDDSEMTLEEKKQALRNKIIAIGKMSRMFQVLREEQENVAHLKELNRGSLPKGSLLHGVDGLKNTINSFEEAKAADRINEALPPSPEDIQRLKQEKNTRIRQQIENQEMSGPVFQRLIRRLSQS

fMet-Leu-Phe receptor = fMet-Leu-Phe receptor (Homo sapiens, UniProt P21462); test: formyl peptide receptor binders – dose response (AID 519); assay type: functional
[17] = tested on: Streptococcus sp. 'group A'; test: Streptococcus pyogenes SK(-)GAS viability under kanamycin – luminescence, BacTiterGlo, confirmation, counter-screen for streptokinase expression inhibitor project, dose response (AID 1900); assay type: functional, organism-based
Streptokinase A = target: T2, Streptokinase A (Streptococcus pyogenes serotype M1, UniProt P10520); test: viability-normalized secreted streptokinase activity reduction – plasminogen activation absorbance, OD405, dose response (AID 1914); assay type: functional, Streptococcus pyogenes M1 GAS;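 note: secreted streptokinase activity via plasminogen activation per viability signal from cell pellet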
T2 sequence (P10520 whole entry): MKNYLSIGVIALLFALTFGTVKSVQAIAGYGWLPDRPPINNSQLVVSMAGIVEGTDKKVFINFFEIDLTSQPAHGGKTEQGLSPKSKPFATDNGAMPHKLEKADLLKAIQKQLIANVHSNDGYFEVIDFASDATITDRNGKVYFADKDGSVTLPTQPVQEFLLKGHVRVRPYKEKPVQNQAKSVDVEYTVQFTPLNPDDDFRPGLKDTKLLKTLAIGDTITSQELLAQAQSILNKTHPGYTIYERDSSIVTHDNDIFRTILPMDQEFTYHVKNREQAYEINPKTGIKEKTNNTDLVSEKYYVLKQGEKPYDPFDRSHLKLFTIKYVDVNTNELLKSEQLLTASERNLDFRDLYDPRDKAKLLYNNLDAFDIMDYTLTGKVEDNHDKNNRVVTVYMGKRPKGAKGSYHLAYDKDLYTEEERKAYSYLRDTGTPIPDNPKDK

INS1 = test: INS-1E survival protection against cytokine death – cell-based, luminescence, retest, dose response (AID 449756); assay type: functional; conditions: Rattus norvegicus;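 note: cell death triggered by IL-1 beta plus TNF-alpha plus IFN-gamma mixture; protective hits raise ATP signal compared with cytokine alone wells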
Streptococcus = test: GAS UMAA2166 growth inhibition – luminescence, BacTiterGlo, counter-screen for streptokinase expression inhibitor project, dose response (AID 1915); assay type: functional, organism-based;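 note: potency for reduction of bacterial viability or growth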
HEK293 = test: EBV LMP1 TES2 canonical NF-kB signalling blockers – cell-based, HEK293, luciferase, cherry-pick, dose response (AID 588343); assay type: functional; conditions: Homo sapiens
[18] = M. tuberculosis H37Rv growth inhibitors, H37Rv strain (AID 1626); assay type: functional
[19] = target: Voltage-dependent T-type calcium channel subunit alpha-1H (Homo sapiens, UniProt O95180); assay type: functional;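 note: channel activity triggered by adding a high calcium stimulation buffer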
Chain of Voltage-dependent T-type calcium channel subunit alpha-1H (O95180 whole entry): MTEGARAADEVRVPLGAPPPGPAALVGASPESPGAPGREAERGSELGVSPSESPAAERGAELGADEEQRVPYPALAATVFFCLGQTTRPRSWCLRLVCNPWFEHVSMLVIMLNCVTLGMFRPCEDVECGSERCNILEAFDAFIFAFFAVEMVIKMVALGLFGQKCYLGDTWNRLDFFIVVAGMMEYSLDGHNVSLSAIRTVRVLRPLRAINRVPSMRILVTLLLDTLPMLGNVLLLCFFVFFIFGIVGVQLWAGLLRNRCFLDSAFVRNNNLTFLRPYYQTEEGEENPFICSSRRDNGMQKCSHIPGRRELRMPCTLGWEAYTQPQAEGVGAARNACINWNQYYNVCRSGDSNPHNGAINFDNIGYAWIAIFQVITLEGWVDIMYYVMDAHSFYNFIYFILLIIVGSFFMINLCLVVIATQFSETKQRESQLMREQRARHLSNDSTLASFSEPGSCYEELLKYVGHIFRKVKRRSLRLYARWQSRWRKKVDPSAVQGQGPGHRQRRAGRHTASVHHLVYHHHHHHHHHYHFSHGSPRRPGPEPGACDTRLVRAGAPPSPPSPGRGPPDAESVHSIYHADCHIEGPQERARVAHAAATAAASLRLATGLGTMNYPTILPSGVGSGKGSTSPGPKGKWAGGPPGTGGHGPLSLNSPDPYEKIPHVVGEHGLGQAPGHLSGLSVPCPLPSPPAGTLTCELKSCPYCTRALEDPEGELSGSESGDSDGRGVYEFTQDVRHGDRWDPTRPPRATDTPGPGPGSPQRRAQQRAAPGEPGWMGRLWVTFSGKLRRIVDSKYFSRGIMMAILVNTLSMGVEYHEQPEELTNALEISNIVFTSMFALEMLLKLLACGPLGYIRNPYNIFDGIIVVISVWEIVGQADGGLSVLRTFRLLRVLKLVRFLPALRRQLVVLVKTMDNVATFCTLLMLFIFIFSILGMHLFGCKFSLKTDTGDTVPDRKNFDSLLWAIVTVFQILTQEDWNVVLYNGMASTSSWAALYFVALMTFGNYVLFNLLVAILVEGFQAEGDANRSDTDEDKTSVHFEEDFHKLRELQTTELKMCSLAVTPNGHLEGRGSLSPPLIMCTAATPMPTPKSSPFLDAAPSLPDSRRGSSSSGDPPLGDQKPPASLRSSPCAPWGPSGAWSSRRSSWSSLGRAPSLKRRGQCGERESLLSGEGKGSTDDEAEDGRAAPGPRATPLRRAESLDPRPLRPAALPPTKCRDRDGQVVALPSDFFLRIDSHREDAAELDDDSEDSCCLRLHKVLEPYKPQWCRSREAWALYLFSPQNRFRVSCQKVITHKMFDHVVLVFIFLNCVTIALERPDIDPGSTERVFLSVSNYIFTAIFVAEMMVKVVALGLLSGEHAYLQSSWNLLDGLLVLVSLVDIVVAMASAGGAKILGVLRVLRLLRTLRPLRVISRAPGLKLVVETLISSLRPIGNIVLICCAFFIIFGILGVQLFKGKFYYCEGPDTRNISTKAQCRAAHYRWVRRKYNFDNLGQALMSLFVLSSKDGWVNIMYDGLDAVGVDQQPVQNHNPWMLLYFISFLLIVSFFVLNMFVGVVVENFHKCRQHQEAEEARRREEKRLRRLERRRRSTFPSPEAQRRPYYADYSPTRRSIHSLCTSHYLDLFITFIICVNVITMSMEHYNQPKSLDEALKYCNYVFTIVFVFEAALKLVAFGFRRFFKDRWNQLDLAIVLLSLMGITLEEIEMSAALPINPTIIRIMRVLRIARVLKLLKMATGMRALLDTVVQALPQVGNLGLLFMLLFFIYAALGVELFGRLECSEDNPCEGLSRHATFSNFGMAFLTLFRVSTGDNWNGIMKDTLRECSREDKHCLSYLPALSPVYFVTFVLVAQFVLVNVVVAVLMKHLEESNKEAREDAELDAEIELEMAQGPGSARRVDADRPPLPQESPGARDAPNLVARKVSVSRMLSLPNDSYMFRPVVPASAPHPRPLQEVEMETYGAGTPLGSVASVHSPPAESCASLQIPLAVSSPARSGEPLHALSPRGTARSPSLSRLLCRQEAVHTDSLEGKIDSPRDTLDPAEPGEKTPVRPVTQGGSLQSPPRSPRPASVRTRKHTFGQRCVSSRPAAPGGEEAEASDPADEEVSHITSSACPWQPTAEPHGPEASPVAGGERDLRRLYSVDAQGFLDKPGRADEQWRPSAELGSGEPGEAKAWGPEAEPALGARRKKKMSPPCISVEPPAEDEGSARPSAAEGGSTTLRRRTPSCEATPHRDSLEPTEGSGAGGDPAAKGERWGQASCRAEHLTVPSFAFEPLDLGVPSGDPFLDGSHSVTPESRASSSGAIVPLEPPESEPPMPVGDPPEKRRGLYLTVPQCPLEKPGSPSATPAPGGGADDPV

Chain of fMet-Leu-Phe receptor (P21462 whole entry): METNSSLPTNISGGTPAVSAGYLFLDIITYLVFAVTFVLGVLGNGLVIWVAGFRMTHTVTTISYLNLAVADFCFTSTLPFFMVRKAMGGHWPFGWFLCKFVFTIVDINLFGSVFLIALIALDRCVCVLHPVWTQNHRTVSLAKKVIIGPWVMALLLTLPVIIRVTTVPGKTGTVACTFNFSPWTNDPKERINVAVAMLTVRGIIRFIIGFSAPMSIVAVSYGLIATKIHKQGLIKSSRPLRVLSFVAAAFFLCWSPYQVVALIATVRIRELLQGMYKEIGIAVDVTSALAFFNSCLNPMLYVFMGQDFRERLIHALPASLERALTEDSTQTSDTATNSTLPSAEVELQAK
Chain of Sphingosine 1-phosphate receptor 2 (O95136 whole entry): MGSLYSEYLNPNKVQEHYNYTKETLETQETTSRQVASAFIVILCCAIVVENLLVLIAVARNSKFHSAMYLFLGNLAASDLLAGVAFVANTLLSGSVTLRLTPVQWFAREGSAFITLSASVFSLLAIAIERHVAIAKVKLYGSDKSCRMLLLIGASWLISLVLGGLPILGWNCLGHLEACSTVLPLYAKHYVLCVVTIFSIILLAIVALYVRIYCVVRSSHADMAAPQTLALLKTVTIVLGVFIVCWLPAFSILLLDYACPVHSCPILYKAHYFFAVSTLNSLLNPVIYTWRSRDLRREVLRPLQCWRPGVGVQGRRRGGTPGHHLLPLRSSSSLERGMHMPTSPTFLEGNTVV
Chain of NADPH oxidase 1 (Q9Y5S8 whole entry): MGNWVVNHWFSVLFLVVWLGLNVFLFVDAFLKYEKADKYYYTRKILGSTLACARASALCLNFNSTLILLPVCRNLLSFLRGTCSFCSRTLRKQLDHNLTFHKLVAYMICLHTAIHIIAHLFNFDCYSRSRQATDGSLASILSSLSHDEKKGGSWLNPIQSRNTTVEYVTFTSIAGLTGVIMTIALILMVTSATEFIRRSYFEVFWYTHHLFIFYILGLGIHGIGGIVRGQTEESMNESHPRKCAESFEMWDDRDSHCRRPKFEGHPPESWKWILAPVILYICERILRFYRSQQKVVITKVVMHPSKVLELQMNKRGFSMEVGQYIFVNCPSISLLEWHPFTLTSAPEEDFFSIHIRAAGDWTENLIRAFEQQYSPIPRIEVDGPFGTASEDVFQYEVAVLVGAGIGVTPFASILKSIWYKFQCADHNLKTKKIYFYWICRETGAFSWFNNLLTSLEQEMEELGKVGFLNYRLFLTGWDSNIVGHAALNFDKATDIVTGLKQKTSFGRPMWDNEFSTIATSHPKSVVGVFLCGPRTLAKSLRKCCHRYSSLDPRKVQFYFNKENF
Chain of ATP-dependent molecular chaperone HSP82 (C4YTQ8 whole entry): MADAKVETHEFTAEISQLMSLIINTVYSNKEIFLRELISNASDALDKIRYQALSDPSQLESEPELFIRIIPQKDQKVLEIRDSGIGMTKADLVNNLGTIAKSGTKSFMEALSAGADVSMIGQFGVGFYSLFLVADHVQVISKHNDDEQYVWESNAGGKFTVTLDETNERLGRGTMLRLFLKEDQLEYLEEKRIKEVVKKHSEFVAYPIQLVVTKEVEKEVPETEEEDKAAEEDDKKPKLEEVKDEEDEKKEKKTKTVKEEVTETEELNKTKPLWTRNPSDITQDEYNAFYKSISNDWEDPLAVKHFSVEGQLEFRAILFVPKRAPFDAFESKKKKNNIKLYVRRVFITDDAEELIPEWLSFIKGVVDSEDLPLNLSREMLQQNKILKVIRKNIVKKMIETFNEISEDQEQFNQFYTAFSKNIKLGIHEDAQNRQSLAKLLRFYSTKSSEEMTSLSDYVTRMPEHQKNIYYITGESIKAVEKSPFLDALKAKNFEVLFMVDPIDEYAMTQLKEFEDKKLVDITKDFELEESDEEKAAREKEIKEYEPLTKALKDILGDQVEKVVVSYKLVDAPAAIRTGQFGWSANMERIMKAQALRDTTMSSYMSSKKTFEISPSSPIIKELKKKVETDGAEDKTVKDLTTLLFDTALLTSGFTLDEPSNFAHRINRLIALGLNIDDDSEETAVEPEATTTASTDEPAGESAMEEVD

## CCN(CC)c1ccc(NC(=O)Nc2ccccc2C(F)(F)F)cc1
NADPH oxidase 1
  IC50: 0.354 µM (active)
[1]
  EC50: > 50 µM (not active)

## CC(C)(C)[S@+]([O-])N1Cc2cc(C(=O)NCc3ccccc3F)nc(-c3cccc(-c4ccncc4)c3)c2[C@@H]1CCO
[2]
  AC50: 1.68 µM (active)
[3]
  AC50: 1.93 µM (active)
[4]
  AC50: 29.1 µM (active)
[5]
  AC50: 1.42 µM (active)
[6]
  AC50: 1.36 µM (active)

## C[C@H]1CN([C@@H](C)CO)C(=O)c2ccccc2-c2ccccc2CO[C@H]1CN(C)Cc1ccc(-c2ccccc2)cc1
[2]
  AC50: 1.59 µM (active)
[3]
  AC50: 1.19 µM (active)
[4]
  AC50: 22.2 µM (active)
[5]
  AC50: 1.11 µM (active)
[6]
  AC50: 3.92 µM (active)

## CC(=O)O/N=C/c1c(N2CCOCC2)n(C)c2ccccc12
[7]
  EC50: 38.6 µM (active)
[8]
  EC50: > 120 µM (not active)
[9]
  EC50: > 160 µM (inactive)
[10]
  CC50: > 40 µM (active)
[11]
  EC50: 0.145 µM (active)
[12]
  EC50: > 160 µM (inactive)
[13]
  EC50: 1.25 µM (active)
[14]
  EC50: 4.45 µM (active)
[15]
  EC50: > 120 µM (not active)
[16]
  EC50: > 180 µM (inactive)

## O=C(NC1CCCC1)C1CC1c1ccccc1 (configuration not stated)
fMet-Leu-Phe receptor
  Ki: > 66.7 µM (inactive)

## Oc1c2c(nc3c(-c4ccc(Cl)cc4)cnn13)CCCC2
[17]
  EC50: 3.64 µM (active)
Streptokinase A
  EC50: > 150 µM (not active)
fMet-Leu-Phe receptor
  Ki: > 66.7 µM (inactive)
INS1
  AC50: 2.37 µM (active)
Streptococcus
  EC50: 9.5 µM (active)
HEK293
  AC50: 2.89 µM (active)

## Cc1nc(NC(=O)CSc2nnc(-c3ccc4c(c3)OCO4)o2)c(Cl)cc1Cl
[18]
  IC50: > 100 µM (active)

## O=C(Cc1c[nH]c2ccccc12)Nc1nc2ccccc2[nH]1
[19]
  EC50: 6.91 µM (active)
[1]
  EC50: > 50 µM (not active)
